Measured values published in the supplement of paper PMC10307832.

Assays:
Assay in all cases: relative viability (nuclei count vs DMSO), 5 days (fraction); higher = more cells survive
AZ505 + Trametinib = compound: C1CCC(CC1)N(CCNCCC2=C3C(=C(C=C2)O)NC(=O)CO3)C(=O)CCNCCC4=CC(=C(C=C4)Cl)Cl [AZ505] + CC(=O)Nc1cccc(-n2c(=O)n(C3CC3)c(=O)c3c(Nc4ccc(I)cc4F)n(C)c(=O)c(C)c32)c1 [Trametinib] (partner 0.02 µM)
Procedure, shortened: (§1)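 Relative viability divides the nuclei count in treated wells by that in vehicle wells. Lung cancer cell lines were seeded in 1536-well plates, dosed by pin tool the next day, and fixed and stained after 5 days in one step with final 0.05% Triton X-100, 1% formaldehyde and 1 ug/ml Hoechst. Dosing was a single drug or a fixed anchor-drug dose plus five library-drug doses (not always all listed) in √10 steps, and values are medians of duplicate plates imaged at 4×.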

AZ505 + Navitoclax = compound: C1CCC(CC1)N(CCNCCC2=C3C(=C(C=C2)O)NC(=O)CO3)C(=O)CCNCCC4=CC(=C(C=C4)Cl)Cl [AZ505] + CC1(C)CCC(c2ccc(Cl)cc2)=C(CN2CCN(c3ccc(C(=O)NS(=O)(=O)c4ccc(N[C@H](CCN5CCOCC5)CSc5ccccc5)c(S(=O)(=O)C(F)(F)F)c4)cc3)CC2)C1 [Navitoclax] (partner 0.5 µM)
Procedure, shortened: as §1

AZ505 + Linsitinib = compound: C1CCC(CC1)N(CCNCCC2=C3C(=C(C=C2)O)NC(=O)CO3)C(=O)CCNCCC4=CC(=C(C=C4)Cl)Cl [AZ505] + C[C@]1(O)C[C@@H](c2nc(-c3ccc4ccc(-c5ccccc5)nc4c3)c3c(N)nccn32)C1 [Linsitinib] (partner 1 µM)
Procedure, shortened: as §1

AZ505 + Palbociclib = compound: C1CCC(CC1)N(CCNCCC2=C3C(=C(C=C2)O)NC(=O)CO3)C(=O)CCNCCC4=CC(=C(C=C4)Cl)Cl [AZ505] + CC(=O)c1c(C)c2cnc(Nc3ccc(N4CCNCC4)cn3)nc2n(C2CCCC2)c1=O [Palbociclib] (partner 0.5 µM)
Procedure, shortened: as §1

Cell Line	relative viability (AZ505 + Trametinib; first compound 0.08 µM)	relative viability (AZ505 + Trametinib; first compound 0.253 µM)	relative viability (AZ505 + Trametinib; first compound 0.8 µM)	relative viability (AZ505 + Trametinib; first compound 2.53 µM)	relative viability (AZ505 + Trametinib; first compound 8 µM)	relative viability (AZ505 + Navitoclax; first compound 0.08 µM)	relative viability (AZ505 + Navitoclax; first compound 0.253 µM)	relative viability (AZ505 + Navitoclax; first compound 0.8 µM)	relative viability (AZ505 + Navitoclax; first compound 2.53 µM)	relative viability (AZ505 + Navitoclax; first compound 8 µM)	relative viability (AZ505 + Linsitinib; first compound 0.08 µM)	relative viability (AZ505 + Linsitinib; first compound 0.253 µM)	relative viability (AZ505 + Linsitinib; first compound 0.8 µM)	relative viability (AZ505 + Linsitinib; first compound 2.53 µM)	relative viability (AZ505 + Linsitinib; first compound 8 µM)	relative viability (AZ505 + Palbociclib; first compound 0.08 µM)	relative viability (AZ505 + Palbociclib; first compound 0.253 µM)	relative viability (AZ505 + Palbociclib; first compound 0.8 µM)	relative viability (AZ505 + Palbociclib; first compound 2.53 µM)	relative viability (AZ505 + Palbociclib; first compound 8 µM)
HOP-62	0.371	0.326	0.333	0.382	0.32	0.946	1.1	0.972	1.03	0.992	0.932	1.03	1.08	0.863	1.08	0.403	0.535	0.461	0.475	0.52
NCI-H2126	0.523	0.592	0.523	0.629	0.574	0.818	0.88	0.83	0.857	0.863	0.681	0.724	0.721	0.711	0.68	0.353	0.375	0.365	0.366	0.338
EPLC-272H	0.308	0.292	0.307	0.277	0.269	1.07	0.967	1.08	0.934	1.06	0.922	1.14	1.04	1.34	1.33	0.272	0.291	0.315	0.298	0.35
PC-3 [JPC-3]	0.596	–	0.694	0.704	0.693	0.76	0.817	0.768	0.84	0.802	0.923	0.935	0.938	0.862	0.947	0.527	–	0.521	0.566	0.568
NCI-H838	0.487	0.464	0.505	0.523	0.479	1.12	1.13	1.13	1.11	1.11	0.965	1.03	1.02	0.997	0.928	0.236	0.191	0.195	0.216	0.195
COR-L 105	0.403	0.452	0.446	0.428	0.476	0.772	0.692	0.83	0.844	0.778	0.703	1.05	0.761	0.779	1.01	0.399	0.405	0.369	0.406	0.399
NCI-H2405	0.487	–	0.615	0.586	0.603	0.449	0.483	0.621	0.524	0.696	0.585	0.639	0.62	0.563	0.714	0.427	–	0.441	0.463	0.426
NCI-H1395	1.06	–	0.991	1.01	1.14	1.09	1.06	1.06	1.07	1.18	0.972	1.01	0.949	0.971	1	0.593	–	0.638	0.661	0.686
NCI-H1915	0.294	0.303	0.236	0.266	0.301	0.749	0.781	0.733	0.783	0.763	1.14	1.1	1.03	0.942	1.04	0.528	0.528	0.478	0.44	0.473
CAL-12T	0.335	0.414	0.312	0.36	0.337	1.12	1.15	1.21	1.29	1.24	0.72	0.901	0.684	0.748	0.9	0.324	0.437	0.372	0.477	0.618
SK-LU-1	0.366	0.377	0.401	0.383	0.407	0.716	0.406	0.451	0.482	0.351	0.45	0.592	0.798	0.588	0.765	0.319	0.343	0.292	0.322	0.336
LXF-289	0.632	0.629	0.66	0.678	0.665	0.891	–	0.919	0.881	0.935	0.884	–	0.973	0.943	0.96	0.552	0.608	0.568	0.594	0.588
NCI-H460	0.218	0.174	0.065	0.126	0.0757	1.02	1.19	0.965	1.11	1.2	0.654	0.899	0.674	0.716	0.817	0.183	0.162	0.147	0.187	0.167
NCI-H1944	0.377	0.391	0.414	0.444	0.386	1.03	1.03	1.03	0.907	1.02	1.15	1.12	1.23	0.922	1.07	0.346	0.325	0.339	0.3	0.308
NCI-H2009	0.247	0.262	0.233	0.276	0.287	1.21	1.14	1.1	1.19	1.12	1.1	1.22	1.12	1.11	1.15	0.191	0.203	0.174	0.153	0.235
201T	0.688	0.716	0.722	0.705	0.711	1.19	1.24	1.17	1.18	1.19	1.03	0.98	0.993	1.01	0.968	0.36	0.353	0.331	0.357	0.353
